system: Raji (Burkitt's) lymphoma cells; assay: MTT assay for 4-day viability of Raji (Burkitt's) lymphoma cells; format: cell-based; details: Homo sapiens, 96 h, Raji cells (highly express MCT1), estimated values, read-out: approximate potency (EC50 nM)
Excerpt: Specific Examples of compounds of the invention, with estimated EC50 values determined using an MTT assay for 4-day viability of Raji (Burkitt's) lymphoma cells, a cell line known to highly express MCT1 and to be sensitive to small molecule MCT inhibitors,^4 are shown in Table 3. Assay protocols follow those described in the literature.^4 Other assays that are not described here but that are standard in the field, such as an assay for competitive inhibition of transport of radiolabeled lactic acid, an MCT substrate, may also be useful in establishing mechanism of action of these compounds.

Structure (SMILES) | EC50 [nM]
CC(C)Cn1c(=O)n(C)c(=O)c2nc(CCCCCO)c(COc3cc4ccccc4cn3)nc21 [Example 27, 6-(5-hydroxypentyl)-1-isobutyl-7-((isoquinolin-3-yloxy)methyl)-3-methylpteridine-2,4(1H,3H)-dione] | ≤ 500
CC(C)Cn1c(=O)n(C)c(=O)c2nc(CCCCCO)c(COc3cccnc3)nc21 [Example 31, 6-(5-hydroxypentyl)-1-isobutyl-3-methyl-7-((pyridin-3-yloxy)methyl)pteridine-2,4(1H,3H)-dione] | ≤ 1000
CC(C)Cn1c(=O)n(C)c(=O)c2nc(CCCCCO)c(COc3ccccc3C#N)nc21 [Example 34, 2-((6-(5-hydroxypentyl)-1-isobutyl-3-methyl-2,4-dioxo-1,2,3,4-tetrahydropteridin-7-yl)methoxy)benzonitrile] | ≥ 2000
CC(C)Cn1c(=O)n(C)c(=O)c2nc(CCCCCO)c(COc3cccc4nccnc34)nc21 [Example 30, 6-(5-hydroxypentyl)-1-isobutyl-3-methyl-7-((quinoxalin-5-yloxy)methyl)pteridine-2,4(1H,3H)-dione] | ≤ 1000
CC(C)Cn1c(=O)n(C)c(=O)c2nc(CCCCCO)c(COc3cccc4ccncc34)nc21 [Example 25, 6-(5-hydroxypentyl)-1-isobutyl-7-((isoquinolin-8-yloxy)methyl)-3-methylpteridine-2,4(1H,3H)-dione] | ≤ 250
CC(C)Cn1c(=O)n(C)c(=O)c2nc(CCCCCO)c(COc3ccncc3)nc21 [Example 28, 6-(5-hydroxypentyl)-1-isobutyl-3-methyl-7-((pyridin-4-yloxy)methyl)pteridine-2,4(1H,3H)-dione] | ≤ 1000
CC(C)Cn1c(=O)n(C)c(=O)c2nc(CCCCCO)c(COc3cccc4cccnc34)nc21 [Example 26, 6-(5-hydroxypentyl)-1-isobutyl-3-methyl-7-((quinolin-8-yloxy)methyl)pteridine-2,4(1H,3H)-dione] | ≤ 500
CC(C)Cn1c(=O)n(C)c(=O)c2nc(CCCCCO)c(COc3cccc([N+](=O)[O-])c3)nc21 [Example 32, 6-(5-hydroxypentyl)-1-isobutyl-3-methyl-7-((3-nitrophenoxy)methyl)pteridine-2,4(1H,3H)-dione] | ≤ 1000
CC(C)Cn1c(=O)n(C)c(=O)c2nc(CCCCCO)c(COc3cc(F)ccc3Br)nc21 [Example 24, 7-((2-bromo-5-fluorophenoxy)methyl)-6-(5-hydroxypentyl)-1-isobutyl-3-methylpteridine-2,4(1H,3H)-dione] | ≤ 250
CC(C)Cn1c(=O)n(C)c(=O)c2nc(CCCCCO)c(COc3ccc([N+](=O)[O-])c4ccccc34)nc21 [Example 8, 6-(5-hydroxypentyl)-1-isobutyl-3-methyl-7-(((4-nitronaphthalen-1-yl)oxy)methyl)pteridine-2,4(1H,3H)-dione] | 300
CC(C)Cn1c(=O)n(C)c(=O)c2nc(CCCCCO)c(COc3c(Br)cc(Br)c4cnccc34)nc21 [Example 29, 7-(((6,8-dibromoisoquinolin-5-yl)oxy)methyl)-6-(5-hydroxypentyl)-1-isobutyl-3-methylpteridine-2,4(1H,3H)-dione] | ≤ 1000
CC(C)Cn1c(=O)n(C)c(=O)c2nc(CCCCCO)c(COc3ccc(Cl)cc3Br)nc21 [Example 21, 7-((2-bromo-4-chlorophenoxy)methyl)-6-(5-hydroxypentyl)-1-isobutyl-3-methylpteridine-2,4(1H,3H)-dione] | ≤ 250
CC(C)Cn1c(=O)n(C)c(=O)c2nc(CCCCCO)c(COc3ccc(Br)cc3Br)nc21 [Example 19, 7-((2,4-dibromophenoxy)methyl)-6-(5-hydroxypentyl)-1-isobutyl-3-methylpteridine-2,4(1H,3H)-dione] | ≤ 250

Results, then the compound that gave them:

EC50 [nM] | Structure (SMILES)
< 50 | CC(C)Cn1c(=O)n(C)c(=O)c2nc(CCCCCO)c(COc3ccccc3Br)nc21 [Example 11, 7-((2-bromophenoxy)methyl)-6-(5-hydroxypentyl)-1-isobutyl-3-methylpteridine-2,4(1H,3H)-dione]
< 50 | CC(C)Cn1c(=O)n(C)c(=O)c2nc(CCCCCO)c(COc3ccnc4ccccc34)nc21 [Example 12, 6-(5-hydroxypentyl)-1-isobutyl-3-methyl-7-((quinolin-4-yloxy)methyl)pteridine-2,4(1H,3H)-dione]
≤ 100 | CC(C)Cn1c(=O)n(C)c(=O)c2nc(CCCCCO)c(COc3cccc(N)c3)nc21 [Example 33, 7-((3-aminophenoxy)methyl)-6-(5-hydroxypentyl)-1-isobutyl-3-methylpteridine-2,4(1H,3H)-dione]
≤ 250 | CC(C)Cn1c(=O)n(C)c(=O)c2nc(CCCCCO)c(COc3ccc(C(F)(F)F)cc3)nc21 [Example 22, 6-(5-hydroxypentyl)-1-isobutyl-3-methyl-7-((4-(trifluoromethyl)phenoxy)methyl)pteridine-2,4(1H,3H)-dione]
< 50 | CC(C)Cn1c(=O)n(C)c(=O)c2nc(CCCCCO)c(COc3cccc4ccccc34)nc21 [Example 2, 6-(5-hydroxypentyl)-1-isobutyl-3-methyl-7-((naphthalen-1-yloxy)methyl)pteridine-2,4(1H,3H)-dione]
≤ 100 | CC(C)Cn1c(=O)n(C)c(=O)c2nc(CCCCCO)c(COc3ccc4ncccc4c3)nc21 [Example 18, 6-(5-hydroxypentyl)-1-isobutyl-3-methyl-7-((quinolin-6-yloxy)methyl)pteridine-2,4(1H,3H)-dione]
≤ 250 | CC(C)Cn1c(=O)n(C)c(=O)c2nc(CCCCCO)c(COc3ccccc3-c3ccccc3)nc21 [Example 23, 7-(([1,1′-biphenyl]-2-yloxy)methyl)-6-(5-hydroxypentyl)-1-isobutyl-3-methylpteridine-2,4(1H,3H)-dione]
≤ 100 | CC(C)Cn1c(=O)n(C)c(=O)c2nc(CCCCCO)c(COc3ccc(-c4ccccc4)cc3)nc21 [Example 14, 7-(([1,1′-biphenyl]-4-yloxy)methyl)-6-(5-hydroxypentyl)-1-isobutyl-3-methylpteridine-2,4(1H,3H)-dione]
< 50 | CC(C)Cn1c(=O)n(C)c(=O)c2nc(CCCCCO)c(COc3cncc4ccccc34)nc21 [Example 5]
≤ 250 | CC(C)Cn1c(=O)n(C)c(=O)c2nc(CCCCCO)c(COc3ccc4cccnc4c3)nc21 [Example 20, 6-(5-hydroxypentyl)-1-isobutyl-3-methyl-7-((quinolin-7-yloxy)methyl)pteridine-2,4(1H,3H)-dione]
< 50 | CC(C)Cn1c(=O)n(C)c(=O)c2nc(CCCCCO)c(COc3ccc4ccccc4c3)nc21 [Example 10]
≤ 100 | CC(C)Cn1c(=O)n(C)c(=O)c2nc(CCCCCO)c(COc3ccccc3)nc21 [Example 15, 6-(5-hydroxypentyl)-1-isobutyl-3-methyl-7-(phenoxymethyl)pteridine-2,4(1H,3H)-dione]
< 50 | CC(C)Cn1c(=O)n(C)c(=O)c2nc(CCCCCO)c(COc3ccccc3C(F)(F)F)nc21 [Example 7, 6-(5-hydroxypentyl)-1-isobutyl-3-methyl-7-((2-(trifluoromethyl)phenoxy)methyl)pteridine-2,4(1H,3H)-dione]
≤ 100 | CC(C)Cn1c(=O)n(C)c(=O)c2nc(CCc3ccccc3CO)c(COc3cccc4ccccc34)nc21 [Example 35, 6-(2-(hydroxymethyl)phenethyl)-1-isobutyl-3-methyl-7-((naphthalen-1-yloxy)methyl)pteridine-2,4(1H,3H)-dione]
< 50 | CC(C)Cn1c(=O)n(C)c(=O)c2nc(CCCCCO)c(COc3cccc4[nH]ccc34)nc21 [Example 6, 7-(((1H-indol-4-yl)oxy)methyl)-6-(5-hydroxypentyl)-1-isobutyl-3-methylpteridine-2,4(1H,3H)-dione]
< 50 | CC(C)Cn1c(=O)n(C)c(=O)c2nc(CCCCCO)c(COc3ccccc3Cl)nc21 [Example 13, 7-((2-chlorophenoxy)methyl)-6-(5-hydroxypentyl)-1-isobutyl-3-methylpteridine-2,4(1H,3H)-dione]
≤ 100 | CC(C)Cn1c(=O)n(C)c(=O)c2nc(CCCCCO)c(COc3cccc(C(F)(F)F)c3)nc21 [Example 16, 6-(5-hydroxypentyl)-1-isobutyl-3-methyl-7-((3-(trifluoromethyl)phenoxy)methyl)pteridine-2,4(1H,3H)-dione]
< 50 | CC(C)Cn1c(=O)n(C)c(=O)c2nc(CCCCCO)c(COc3ccc(N)c4ccccc34)nc21 [Example 9, 7-(((4-aminonaphthalen-1-yl)oxy)methyl)-6-(5-hydroxypentyl)-1-isobutyl-3-methylpteridine-2,4(1H,3H)-dione]
≤ 100 | CC(C)Cn1c(=O)n(C)c(=O)c2nc(CCCCCO)c(COc3ccccc3F)nc21 [Example 17, 7-((2-fluorophenoxy)methyl)-6-(5-hydroxypentyl)-1-isobutyl-3-methylpteridine-2,4(1H,3H)-dione]

From patent US10874675B2, “Pteridine dione monocarboxylate transporter inhibitors” (The Scripps Research Institute, priority 2015, dated 2020)
